According to ChEMBL document CHEMBL5604063, “ASAP - DENV-2 NS2B-NS3 protease fluorescence dose response” (2024):
Where “and” joins values, the source holds several entries; their conditions need not be identical. Equal values may be shown once.

Legend:
[1] = target: T1, Genome polyprotein (dengue virus type 2, UniProt P29990); assay type: functional, Thailand/16681/1984
[2] = target: T1, Genome polyprotein; assay type: functional, Thailand/16681/1984; remark: listed apart in the source

T1 sequence (P29990 1346-1475 limits assumed): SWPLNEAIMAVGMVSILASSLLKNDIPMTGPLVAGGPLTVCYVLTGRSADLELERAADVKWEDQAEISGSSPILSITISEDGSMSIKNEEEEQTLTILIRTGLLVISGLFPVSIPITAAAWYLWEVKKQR
T1 sequence (P29990 1476-2093 limits assumed): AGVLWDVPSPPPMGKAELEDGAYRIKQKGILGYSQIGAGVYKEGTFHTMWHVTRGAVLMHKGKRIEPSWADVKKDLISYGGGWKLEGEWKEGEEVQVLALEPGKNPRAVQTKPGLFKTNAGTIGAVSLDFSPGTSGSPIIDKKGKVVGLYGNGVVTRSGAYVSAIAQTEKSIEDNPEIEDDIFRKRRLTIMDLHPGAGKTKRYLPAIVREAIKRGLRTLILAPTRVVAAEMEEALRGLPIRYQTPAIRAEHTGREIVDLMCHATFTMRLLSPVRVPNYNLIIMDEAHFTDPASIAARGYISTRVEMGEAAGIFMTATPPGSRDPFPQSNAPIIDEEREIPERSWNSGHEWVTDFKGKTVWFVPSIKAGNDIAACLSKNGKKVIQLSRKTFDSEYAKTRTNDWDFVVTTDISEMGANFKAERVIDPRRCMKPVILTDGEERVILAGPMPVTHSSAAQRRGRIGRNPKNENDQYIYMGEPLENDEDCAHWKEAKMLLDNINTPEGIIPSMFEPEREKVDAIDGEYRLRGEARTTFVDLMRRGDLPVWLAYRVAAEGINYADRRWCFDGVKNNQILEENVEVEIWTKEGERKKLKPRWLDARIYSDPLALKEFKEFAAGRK

Row | SMILES | IC50 [1] | IC50 [2]
1 | Cc1c(C(=O)Nc2cc(C3(C)OCCO3)ccn2)cc(C2CC2)n1C | > 99.5 µM | > 100 µM
2 | O=C(Nc1cc2c(cc1Br)CNC2)c1cc(Cl)cc2[nH]ncc12 | > 99.5 µM | > 100 µM
3 | O=C(Nc1cc(-c2cccnc2)ccn1)c1cc2n(n1)CCO2 | > 99.5 µM | > 100 µM
4 | Cc1c(C(=O)Nc2cccc([C@H]3CCOC3)c2)cc(C2CC2)n1C | > 99.5 µM | > 100 µM
5 | O=C(Nc1cc(-c2cccnc2)ccn1)c1csc(C[C@H]2CCNC2)n1 | > 99.5 µM | > 100 µM
6 | O=C(Nc1cc(-c2cccnc2)ccn1)c1nc(C2CC2)co1 | > 99.5 µM | > 100 µM
7 | CNC(=O)[C@H](Nc1cc(Cl)cc2[nH]ncc12)c1ccc2c(c1)CNC2 | > 99.5 µM | > 100 µM
8 | C=CC[C@H]1NCc2cc(N[C@H](C(=O)NC(C)C)c3cccc4[nH]ncc34)ccc21 | > 99.5 µM | > 100 µM
9 | COCCNC(=O)[C@H](Nc1cccc([C@H]2CCOC2)c1)c1cc(Cl)cc2[nH]ncc12 | > 99.5 µM | > 100 µM
10 | CC(C)n1cc(C(=O)Nc2cc(-c3cccnc3)ccn2)c2ccccc21 | > 99.5 µM | > 100 µM
11 | O=C(Nc1ccc2c(c1)CNC2)c1cc(Cl)cc2[nH]c(-c3ccc(F)cc3O)nc12 | 23.8 µM | 60.1 µM
12 | CNC(=O)[C@H](Nc1ccc2c(c1)CNC2)c1cccc2[nH]c(C(F)(F)F)nc12 | > 99.5 µM | > 100 µM
13 | O=C(NCC(F)F)[C@H](Nc1ccc2c(c1)CNC2)c1cc(F)cc2[nH]ccc12 | > 99.5 µM | > 100 µM
14 | O=C(Nc1ccc2c(c1)CNC2)c1cc(Cl)cc2[nH]c(-c3cn[nH]c3)cc12 | > 99.5 µM | > 100 µM
15 | Cc1c(C(=O)Nc2cc(-c3cccnc3)ccn2)cc(C2CCCCC2)n1C | > 99.5 µM | > 100 µM
16 | c1cc([C@@H]2C[C@H]2c2ccc3c(c2)CNC3)c2cn[nH]c2c1 | > 99.5 µM | > 100 µM
17 | O=C(Nc1ccc2c(c1)CNC2)c1cc(Cl)cc2[nH]c(COc3ccccn3)nc12 | > 99.5 µM | 20.1 µM and 16.8 µM
18 | Cc1c(C(=O)Nc2cc(C3CCOCC3)ccc2F)cc(C2CC2)n1C | > 99.5 µM | > 100 µM
19 | O=C(Nc1cc(-c2cccnc2)ccn1)c1cnn2c1CCC2 | > 99.5 µM | > 100 µM
20 | O=C(NCCC1CC1)[C@H](Nc1ccc2c(c1)CNC2)c1cc(Cl)cc(C2CC2)c1 | > 99.5 µM | > 100 µM
21 | O=C1Cc2c(C(=O)Nc3ccc4c(c3)CNC4)ccnc2N1 | > 99.5 µM | > 100 µM

Row | SMILES | IC50 [1] | IC50 [2]
22 | O=C(Nc1cc([C@H]2CCOC2)ccn1)c1cc(Cl)cc2c1CCC2 | > 99.5 µM | > 100 µM
23 | O=C(Nc1ccc2c(c1)CNC2)c1cc(Cl)cc2[nH]c(CN3CCCC3=O)cc12 | > 99.5 µM | > 100 µM
24 | Cc1c(C(=O)Nc2cc(-c3cccnc3)ccn2)cc(-c2ccccc2)n1C | > 99.5 µM | > 100 µM
25 | O=C(Nc1ccc2c(c1)C(=O)OC2)c1ccc2c(c1)CNC2 | > 99.5 µM | > 100 µM
26 | O=C(Nc1ccc2c(c1)CS(=O)(=O)C2)c1cc(Cl)cc2[nH]ncc12 | > 99.5 µM | > 100 µM
27 | COc1ccc(-c2nc3c(C(=O)Nc4ccc5c(c4)CNC5)cc(Cl)cc3[nH]2)cc1 | 21.5 µM | 39.5 µM and 40.3 µM
28 | Cc1c(C(=O)Nc2cc(SC3COC3)ccn2)cc(C2CC2)n1C | > 99.5 µM | > 100 µM
29 | O=C(Nc1cc(-c2cccnc2)ccn1)c1csc(C2CC2)n1 | > 99.5 µM | > 100 µM
30 | O=C(Nc1ccc2c(c1)CNC2)c1cc(Cl)cc2[nH]c(-c3cnccc3O)nc12 | 37.1 µM | > 100 µM
31 | O=C(Nc1cc(Br)c2c(c1)CNC2)c1cc(F)cc2[nH]ncc12 | 40.4 µM | 30.6 µM and 22.5 µM
32 | O=C(Nc1ccc2c(c1)CNC2)c1cc(C(F)(F)F)c2cn[nH]c2n1 | > 99.5 µM | > 100 µM
33 | O=C(NCC(F)F)[C@H](Nc1ccc2c(c1)CNC2)c1cc(F)cc2[nH]ncc12 | > 99.5 µM | 78.2 µM
34 | C=CC[C@H]1NCc2cc(N[C@H](C(=O)NC(C)C)c3cc(Cl)cc4[nH]ncc34)ccc21 | 63.9 µM | 56.9 µM
35 | CNC(=O)[C@H](Nc1cccc([C@H]2CCOC2)c1)c1cc(C2CC2)n(C)n1 | > 99.5 µM | > 100 µM
36 | NCc1cc(Cl)cc(C(=O)Nc2cc([C@H]3CCOC3)ccn2)c1 | > 99.5 µM | > 100 µM
37 | CC1=C(c2cc(NC(=O)c3cc(Cl)cc4[nH]ncc34)cc3c2CNC3)CCC1=O | > 99.5 µM | > 100 µM
38 | Cc1c(C(=O)Nc2cc(-c3cccnc3)ccn2)cc(C(C)(C)C)n1C | > 99.5 µM | > 100 µM
39 | Cn1c(C2CC2)cc(C(=O)Nc2cc(-c3cccnc3)ccn2)c1C1CC1 | > 99.5 µM | > 100 µM
40 | Cc1c(C(=O)Nc2ccnc(O[C@H]3CCOC3)c2)cc(C2CC2)n1C | > 99.5 µM | > 100 µM
41 | O=C(Nc1cc2c(c(C3=CC[C@H](O)CC3)c1)CNC2)c1cc(Cl)cc2[nH]ncc12 | 69.5 µM | > 100 µM
42 | Cn1nc(C2CC2)cc1C(=O)Nc1cc(-c2cccnc2)ccn1 | > 99.5 µM | > 100 µM

Row | SMILES | IC50 [1] | IC50 [2]
43 | CNC(=O)[C@H](Nc1ccc2c(c1)CNC2)c1cc(Cl)cc2c1OCC2 | > 99.5 µM | > 100 µM
44 | CC(C)NC(=O)[C@H](Nc1ccc2c(c1)CNC2)c1cc(F)cc2[nH]ccc12 | > 99.5 µM | > 100 µM
45 | NS(=O)(=O)c1cc(F)cc(C(=O)Nc2ccc3c(c2)CNC3)c1 | > 99.5 µM | > 100 µM
46 | O=C(Nc1ccc2c(c1)CNC2)c1cc(F)cc2c1CCNC2 | > 99.5 µM | > 100 µM
47 | O=C(Nc1ccc2c(c1)CNC2)c1cc(Br)cc2c1nc1n2CCCC1 | 23.8 µM | 47.5 µM and 35.2 µM
48 | O=C(Nc1ccc2c(c1)CNC2)c1n[nH]c2ccc(F)cc12 | > 99.5 µM | 78.7 µM
49 | Fc1cc(CNc2ccc3c(c2)CNC3)c2cn[nH]c2c1 | > 99.5 µM | > 100 µM
50 | O=C(Nc1cc(-c2cccnc2)ccn1)c1cc(C2CC2)[nH]n1 | > 99.5 µM | > 100 µM
51 | O=C(Nc1cc(-c2cccnc2)ccn1)c1cc2n(n1)CCS2(=O)=O | > 99.5 µM | > 100 µM
52 | O=C1OCc2ccc(NC(=O)c3cc(F)cc4c3CCNC4)cc21 | > 99.5 µM | > 100 µM
53 | Cc1c(C(=O)Nc2cccc(-c3ccccc3)c2)cc(C2CC2)n1C | > 99.5 µM | > 100 µM
54 | Cc1c(C(=O)Nc2cccc(C3CCOCC3)c2)cc(C2CC2)n1C | > 99.5 µM | > 100 µM
55 | O=C(Nc1cc(-c2cccnc2)ccn1)c1coc(C2CC2)n1 | > 99.5 µM | > 100 µM
56 | N#Cc1cccc(-c2nc3c(C(=O)Nc4ccc5c(c4)CNC5)cc(Cl)cc3[nH]2)c1 | 1.76 µM and 2.66 µM | 17.3 µM and 12.2 µM
57 | Cc1c(C(=O)Nc2cc(-c3cccnc3)ccn2)cc(C2CCC2)n1C | > 99.5 µM | > 100 µM
58 | O=C(Nc1cc(-c2cccnc2)ccn1)c1cc2n(n1)CC(F)(F)C2 | > 99.5 µM | > 100 µM
59 | O=C(Nc1ccc2c(c1)CNC2)c1cc(F)cc(-c2cnc(C3CC3)s2)c1 | > 99.5 µM | > 100 µM
60 | O=C(Nc1cc(-c2cccnc2)ccn1)c1cc2n(n1)CC1(CC1)C2 | > 99.5 µM | > 100 µM
61 | Nc1nc2c(Br)cc(C(=O)Nc3ccc4c(c3)CNC4)cc2s1 | 28.2 µM | 51.9 µM and 37.3 µM
62 | Cc1c(C(=O)Nc2cc(-c3ccccc3)ccn2)cc(C2CC2)n1C | > 99.5 µM | > 100 µM
